The source of these data is US20170129915A1, “THERAPEUTIC AGENT FOR DISEASES ASSOCIATED WITH NERVE AXON DYSFUNCTION, INCLUDING THERAPEUTIC AGENT FOR ALZHEIMER'S DISEASE” (Resilio Company Limited, priority 2014, published 2017).

In assay [1] the test system is spinal cord injury (SCI) model mice. Briefly: Evaluation of hindlimb motor function based on BMS and TMS. The following applies: suspension in sesame oil, oral once a day, 0.1 μmol/kg·day, 14 days, vs sesame oil alone, FIGS. 4A and 4B. Format: in vivo. As to the method:
Contusion injury was induced in 8-week-old female ddY mice (SLC) by the following procedure to give spinal cord injury (SCI) model mice. The ddY mice were maintained with free access to food and water in a controlled environment (22±2° C., 50±5% humidity, 12-h light/dark cycle starting at 7:00 am) Contusion injury was induced by exposing the lumbar vertebrae of each mouse in accordance with a conventional procedure, then placing the mouse in a stereotaxic apparatus (Narishige), and dropping a 6.5-g weight onto the first lumbar vertebrae (L1) from a height of 2 cm once. The mouse was then subjected to surgical procedures such as suture in a conventional manner. One hour after the induction of the contusion injury, the mice were randomly selected and divided into test groups and were subjected to the administration test described later in Example 10 and Comparative Example 5.
The locomotion behavior in the open field was evaluated using the Basso Mouse Scale (BMS) (see, for example, Engesser-Cesar C, Anderson A J, Basso D M et al., (2005), Voluntary wheel running improves recovery from a moderate spinal cord injury, J Neurotrauma 22: 157-171), which was a general standard for the evaluation of the hindlimb motor function of spinal cord injury model mice, and a 0-30-point Toyama Mouse Scale (TMS), which was a modified BMS established by the inventors for better test accuracy. […]

Assay [2] concerns normal mice (ddY). The experiment in a line: Object recognition memory test in normal mice. Format: in vivo. The following applies: Example 12: suspension in sesame oil, oral, 0.1 μmol/kg·day, 4 days; ddY male and female 9 weeks; interval 48 hours; FIG. 10. How it is done: […] All mice were housed with free access to food and water and were kept in a controlled environment at 22±2° C., 50±5% humidity, and 12-h light/dark cycle starting at 7:00 am.
The next day of the measurement of spontaneous motor activity, an object recognition memory test was performed as described in Joyashiki, E. et al., Int J Neurosci, 121, 181-190, 2011 and Tohda, C. et al., Int J Neurosci, 121, 641-648, 2011, reported by the inventors and others. Testing was carried out in a dimly illuminated room (about 100 lx). An appropriate time interval between a training session and a test session was set based on the results of a preliminary test using another group of mice. The object recognition memory test utilizes animals' habit of showing interest in a novel object. The inner walls of the open-field box for the test had no marks. In the training session, two identical objects were placed in the field, and mice were allowed to explore freely for 10 minutes. In the test session, the location of the objects was not changed, but one of the objects was replaced with a novel object, and the mice were allowed to explore freely for 10 minutes. […] In the Examples below, the ratio (%) of the number of times a mouse explored the novel object to the total exploration time was calculated as a preference index. […]

For another assay, the system named is normal or AD model mice. The following applies: intraperitoneal administration; cited from earlier work.
The test system of assay [3] is normal mice (ddY). The experiment in a line: Object location memory test in normal mice (Reference Test 2). The following applies: 10 μmol/kg·day, 5 days, ddY male 6 weeks, interval 48 hours. Format: in vivo. As to the method:
ddY Mice were obtained from Japan SLC (Hamamatsu, Japan) In the Examples below, 6-week-old male ddY mice were used as normal mice. All mice were housed with free access to food and water and were kept in a controlled environment at 22±2° C., 50±5% humidity, and 12-h light/dark cycle starting at 7:00 am.
Testing was carried out in a dimly illuminated room (about 100 lx). An appropriate time interval between a training session and a test session was set based on the results of a preliminary test using another group of mice. The object location memory test utilizes animals' habit of showing interest in a novel object. The two opposite walls of a four-walled open-field box for the test had wall coverings with a distinct pattern. […] In the test session, one of the objects was moved to a different location, and the mice were allowed to explore freely for 10 minutes. The increase of the number of times a mouse preferentially explored the identical but relocated object was used as an index of the location memory. That is, the test session determines whether a mouse remembers the previous exposure to an object in the training session. In the Examples below, the ratio (%) of the number of times a mouse explored the object after relocation to the total exploration time was calculated as a preference index. […]

`C[C@@H]1CC[C@@]2(OC1)O[C@H]1C[C@H]3[C@@H]4CC=C5C[C@@H](F)CC[C@]5(C)[C@H]4CC[C@]3(C)[C@H]1[C@@H]2C` [Dios-F, (3β,25R)-3-fluorospirost-5-ene]: the “hindlimb motor function (BMS and TMS scores)” value in assay [1] was “significantly improved”.

For the compound `C[C@@H]1CC[C@@]2(OC1)O[C@H]1C[C@H]3[C@@H]4CC=C5C[C@@H](O)CC[C@]5(C)[C@H]4CC[C@]3(C)[C@H]1[C@@H]2C` [diosgenin, Diosgenin], the object recognition memory result with normal mice (ddY) [2] is “a significant enhancement of the object recognition memory”. Moreover, the memory result in the assay with normal or AD model mice is given as “enhanced the memory”. Besides, the “memory enhancing effect, object location memory test” value in the assay on normal mice (ddY) [3] (Reference Example 1: dissolved in aqueous solvent (ethanol/5% glucose), oral, FIG. 6A) is recorded as “no memory enhancing effect”; in the assay on normal mice (ddY) [3] (Reference Example 2: dissolved in aqueous solvent, intraperitoneal, FIG. 6B) it was “a significant memory enhancing effect”.
